Source: patent publication US5494932A, “Sulfonic stilbene derivatives in the treatment of viral disease” (Merrell Dow Pharmaceuticals Inc., priority 1991, dated 1996)
Like-named read-outs stand apart in the source and are kept apart here.

Tests used:
[1] = tested on: HIV-1 strain GB8 in JM cells; assay: Acute HIV-1 (GB8) infection of JM cells: syncytial counts and p24 antigen; type: cell-based, HIV-1 (human T cell line JM); conditions: for Mean Syncytial Counts: at day 4 p.i.
Source text: (§1) When evaluated in the human T cell line JM acutely infected with the GB8 virus, DIDS, H2 DIDS and SITS (Table I) suppressed virus-induced multinucleated giant cell formation (syncytia). […] We also examined the antiviral properties of these compounds in a second host-cell/virus system, i.e., the highly CD4+ C8166 cells infected with the Haitian strain of HIV-1, RF.
(§2) The cell lines used were the semi-mature human lymphoblastoid leukemia T cell line JM, the human T-lymphoblastoid C8166 cell line, the human cutaneous T cell lymphoma line H9 and, the human T cell transformed line MT-4. Stocks of HIV-1 strains RF and GB8 (kindly provided by Dr. Graham Farrar, Center for Applied Microbiological Research, Porton Dawn, England) were prepared from chronically infected H9 cells and acutely infected JM cells, respectively. Virus stocks consisted of cell-free growth medium (RPMI 1640 plus 10% fetal calf serum) containing freshly shed virus. Virus titres were determined by a standard plaque reduction assay.
(§3) Virus stocks (strains RF or GB8) were diluted into growth medium containing various concentrations of DIDS, H2 DIDS or SITS. The required number of cells were then immediately added and the virus allowed to absorb for 2 hours at 37° C. to give a multiplicity of infection (MOI) of 0.001 infectious units/cell. The virus-infected cells were pelleted, washed three times in phosphate buffered saline (PBS), and resuspended in fresh growth medium containing the appropriate concentrations of stilbene disulfonic acids. Cells were then distributed into 24-well culture plates (Falcon) and assayed as described below for virus infection. Alternatively, cells were first infected with HIV-1 (strains RF or GB8) for 2 hours at 37° C. at the above MOI. After extensive washing, cells were replated into fresh growth medium containing various concentrations of stilbene disulfonic acids. In the above experiments, syncytia were scored between 2 and 4 days postinfection (p.i.) in triplicate using an Olympus CK2 inverted microscope. The culture fluids were recovered between 3 and 5 days p.i., clarified by low speed centrifugation (2,000 rpm) for 5 minutes and the level of HIV-1 p24 core antigen in the supernatants was determined by p24 antigen ELISA (Coulter). The concentrations of stilbene disulfonic acids giving 50% inhibition of HIV-1 growth (IC50) were determined from the dose-response curves by linear regression analysis.
Protocol: JM cells were infected with HIV-1 to give a multiplicity of infection of 0.001. Virus adsorption was for 2 hours at room temperature. The cells were washed and distributed into wells containing different concentrations of test compounds and incubated. After 2 days the cells were observed and syncytia were counted. The cell-free supernatant fluids were harvested at 4 and 6 days post infection and assayed for levels of p24 viral core antigen and after 6 days the supernatants were also titrated to determine levels of infectivity.

[2] = tested on: HIV-1 strain GB8 in JM cells; assay: Established HIV-1 (GB8) infection of JM cells, post-infection addition: syncytia and p24 antigen; type: cell-based, HIV-1 (human T cell line JM); conditions: 100 μg/ml
[3] = tested on: HSV 2; assay: Plaque reduction assay, HSV 2; type: cell-based
Protocol: Protocol: Plaque reduction assay. Treatment after adsorption during incubation.

[4] = tested on: HIV-1 strain RF in C8166 cells; assay: Acute HIV-1 (RF) infection of C8166 cells: syncytial and p24 antigen assays; type: cell-based, HIV-1 (human C8166 cells)
Source text: as §1, §2, §3

[5] = JM cells acutely infected with GB8

**Q.** How did the “Mean Syncytial Counts 2 Days p.i.” value ([1]; 3 μg/ml) turn out when O=S(=O)(O)c1cc(N=C=S)ccc1C=Cc1ccc(N=C=S)cc1S(=O)(=O)O [DIDS, 4,4'-diisothiocyanatostilbene-2,2'-disulfonic acid] was run?
**A.** 114

**Q.** And the “Mean Syncytial Counts” value ([1]; 6 μM)?
**A.** 114

**Q.** What about the “Mean Syncytial Counts 2 Days p.i.” value ([1]; 6 μg/ml) of the same molecule?
**A.** 101

**Q.** What about the “Mean Syncytial Counts” value ([1]; 12 μM) of the same molecule?
**A.** 101

**Q.** What about the “Mean Syncytial Counts 2 Days p.i.” value ([1]; 12.5 μg/ml) of the same molecule?
**A.** 31

**Q.** What about the “p24 4 days p.i.” value ([1]; 12.5 μg/ml) of the same molecule?
**A.** 110000 pg/mL

**Q.** What about the “p24 6 days p.i.” value ([1]; 12.5 μg/ml) of the same molecule?
**A.** 2.44 × 10^6 pg/m.

**Q.** What about the “Mean Syncytial Counts” value ([1]; 25 μM) of the same molecule?
**A.** 31

**Q.** And the “Mean Syncytial Counts 2 Days p.i.” value ([1]; 25 μg/ml)?
**A.** 0

**Q.** And the “p24 4 days p.i.” value ([1]; 25 μg/ml)?
**A.** 4700 pg/mL

**Q.** And the “p24 6 days p.i.” value ([1]; 25 μg/ml)?
**A.** 1.21 × 10^6 pg/m.

**Q.** And the “Mean Syncytial Counts” value ([1]; 50 μM)?
**A.** 0

**Q.** And the “Mean Syncytial Counts 2 Days p.i.” value ([1]; 50 μg/ml)?
**A.** 0

**Q.** What about the “p24 4 days p.i.” value ([1]; 50 μg/ml) of the same molecule?
**A.** 130 pg/mL

**Q.** What about the “p24 6 days p.i.” value ([1]; 50 μg/ml) of the same molecule?
**A.** 1.23 × 10^4 pg/m.

**Q.** What about the “Mean Syncytial Counts” value ([1]; 100 μM) of the same molecule?
**A.** 0

**Q.** What about the “Mean Syncytial Counts 2 Days p.i.” value ([1]; 100 μg/ml) of the same molecule?
**A.** 0

**Q.** And the “p24 4 days p.i.” value ([1]; 100 μg/ml)?
**A.** None detected

**Q.** And the “p24 6 days p.i.” value ([1]; 100 μg/ml)?
**A.** 4.87 × 10^2 pg/m.

**Q.** And the “Mean Syncytial Counts” value ([1]; 200 μM)?
**A.** 0

**Q.** And the activity at 12.5 µg/mL ([1]; Human immunodeficiency virus 1, 96 h, 12.5 μg/ml, read-out: p24 4 days p.i., % Control)?
**A.** > 100%

**Q.** What about the activity at 25 µg/mL ([1]; Human immunodeficiency virus 1, 96 h, 25 μg/ml, read-out: p24 4 days p.i., % Control) of the same molecule?
**A.** 6.4%

**Q.** And the activity at 50 µg/mL ([1]; Human immunodeficiency virus 1, 96 h, 50 μg/ml, read-out: p24 4 days p.i., % Control)?
**A.** 0.18%

**Q.** What about the activity at 100 µg/mL ([1]; Human immunodeficiency virus 1, 96 h, 100 μg/ml, read-out: p24 4 days p.i., % Control) of the same molecule?
**A.** 0%

**Q.** And the activity at 200 µM ([1]; Human immunodeficiency virus 1, 144 h, read-out: P24 Antigen % Virus Control)?
**A.** 0.02%

**Q.** And the activity at 12.5 µg/mL ([1]; Human immunodeficiency virus 1, 144 h, 12.5 μg/ml, read-out: p24 6 days p.i., % Control)?
**A.** > 100%

**Q.** And the activity at 25 µg/mL ([1]; Human immunodeficiency virus 1, 144 h, 25 µg/mL, GB8 in JM cells, day 6 p.i., read-out: P24 Antigen % Virus Control)?
**A.** 100%

**Q.** What about the activity at 25 µg/mL ([1]; Human immunodeficiency virus 1, 144 h, 25 μg/ml, read-out: p24 6 days p.i., % Control) of the same molecule?
**A.** 56%

**Q.** And the activity at 50 µg/mL ([1]; Human immunodeficiency virus 1, 144 h, 50 µg/mL, GB8 in JM cells, day 6 p.i., read-out: P24 Antigen % Virus Control)?
**A.** 6.4%

**Q.** And the activity at 50 µg/mL ([1]; Human immunodeficiency virus 1, 144 h, 50 μg/ml, read-out: p24 6 days p.i., % Control)?
**A.** 0.56%

**Q.** What about the activity at 100 µg/mL ([1]; Human immunodeficiency virus 1, 144 h, 100 µg/mL, GB8 in JM cells, day 6 p.i., read-out: P24 Antigen % Virus Control) of the same molecule?
**A.** 0.56%

**Q.** And the activity at 100 µg/mL ([1]; Human immunodeficiency virus 1, 144 h, 100 μg/ml, read-out: p24 6 days p.i., % Control)?
**A.** 0.02%

**Q.** And the “inhibition of p24 viral core antigen” value [1, 5]?
**A.** dose-dependent inhibition

**Q.** And the “virus-induced multinucleated giant cell formation (syncytia)” value [1, 5]?
**A.** suppressed

**Q.** What about the “order of antiviral potency” value ([1]; in all three host cell/virus systems (JM/GB8, C8166/RF, MT-4/RF)) of the same molecule?
**A.** DIDS>H2 DIDS>>SITS

**Q.** And the “Mean Syncytia 51 hrs” value ([2]; time of addition 0h)?
**A.** 0

**Q.** What about the “Mean Syncytia 51 hrs” value ([2]; time of addition 24h) of the same molecule?
**A.** 0

**Q.** What about the Plaque counts ([3]; 0.1 μg/ml, first count) of the same molecule?
**A.** 37

**Q.** What about the activity at 0.1 µg/mL ([3]; 0.1 μg/ml, read-out: Mean % VC (plaques)) of the same molecule?
**A.** 68%

**Q.** And the Plaque counts ([3]; 0.1 μg/ml, second count)?
**A.** 40

**Q.** And the Plaque counts ([3]; 1 μg/ml, first count)?
**A.** 31

**Q.** And the activity at 1 µg/mL ([3]; 1 μg/ml, read-out: Mean % VC (plaques))?
**A.** 61%

**Q.** And the Plaque counts ([3]; 1 μg/ml, second count)?
**A.** 33

**Q.** What about the Plaque counts ([3]; 1 μg/ml, third count) of the same molecule?
**A.** 39

**Q.** What about the Plaque counts ([3]; 10 μg/ml, first count) of the same molecule?
**A.** 25

**Q.** And the activity at 10 µg/mL ([3]; 10 μg/ml, read-out: Mean % VC (plaques))?
**A.** 44%

**Q.** And the Plaque counts ([3]; 10 μg/ml, second count)?
**A.** 25

**Q.** And the Plaque counts ([3]; 10 μg/ml, third count)?
**A.** 25

**Q.** What about the Plaque counts ([3]; 100 μg/ml, first count) of the same molecule?
**A.** 0

**Q.** What about the activity at 100 µg/mL ([3]; 100 μg/ml, read-out: Mean % VC (plaques)) of the same molecule?
**A.** 0%

**Q.** And the Plaque counts ([3]; 100 μg/ml, second count)?
**A.** 0

**Q.** What about the Plaque counts ([3]; 100 μg/ml, third count) of the same molecule?
**A.** 0

**Q.** What about the HIV-1 infection ([4]; C8166 cells infected with RF) of the same molecule?
**A.** blocked HIV-1 infection

**Q.** What about the activity at 25 µg/mL ([4]; Human immunodeficiency virus 1, 25 µg/mL, RF strain in C8166 cells, read-out: P24 Antigen % Virus Control (values in parenthesis)) of the same molecule?
**A.** 100%

**Q.** And the activity at 50 µg/mL ([4]; Human immunodeficiency virus 1, 50 µg/mL, RF strain in C8166 cells, read-out: P24 Antigen % Virus Control (values in parenthesis))?
**A.** 83%

**Q.** What about the activity at 100 µg/mL ([4]; Human immunodeficiency virus 1, 100 µg/mL, RF strain in C8166 cells, read-out: P24 Antigen % Virus Control (values in parenthesis)) of the same molecule?
**A.** 33%

**Q.** What about the activity at 200 µg/mL ([4]; Human immunodeficiency virus 1, 200 µg/mL, RF strain in C8166 cells, read-out: P24 Antigen % Virus Control (values in parenthesis)) of the same molecule?
**A.** 4.8%
